Data taken from PMC3527126 (Endocrine-related cancer, 2011).

Molecular target: PKCδ (Homo sapiens, UniProt Q05655)
Test: Omnia fluorescent
Format: biochemical

Sequence of PKCδ (Q05655 whole entry): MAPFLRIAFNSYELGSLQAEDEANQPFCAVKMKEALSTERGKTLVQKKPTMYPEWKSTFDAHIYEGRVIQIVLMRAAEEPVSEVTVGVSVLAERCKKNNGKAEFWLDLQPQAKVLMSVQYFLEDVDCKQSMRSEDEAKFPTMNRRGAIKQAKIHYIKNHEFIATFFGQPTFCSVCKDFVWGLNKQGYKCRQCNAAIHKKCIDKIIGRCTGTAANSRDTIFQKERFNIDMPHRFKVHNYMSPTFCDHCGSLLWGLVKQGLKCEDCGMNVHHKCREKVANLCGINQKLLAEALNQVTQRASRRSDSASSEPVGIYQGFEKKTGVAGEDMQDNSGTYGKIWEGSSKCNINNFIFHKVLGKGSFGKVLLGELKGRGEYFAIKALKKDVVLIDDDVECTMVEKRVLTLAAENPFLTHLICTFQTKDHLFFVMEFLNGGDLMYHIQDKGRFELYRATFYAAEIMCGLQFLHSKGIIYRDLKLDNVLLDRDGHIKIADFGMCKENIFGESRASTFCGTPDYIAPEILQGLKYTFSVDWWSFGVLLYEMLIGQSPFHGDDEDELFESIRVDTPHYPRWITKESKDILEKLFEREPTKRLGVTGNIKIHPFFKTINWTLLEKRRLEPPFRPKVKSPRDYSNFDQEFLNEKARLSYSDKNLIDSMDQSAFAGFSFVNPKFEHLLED

## CC(=O)c1c(O)c(C)c(O)c(Cc2c(O)c3c(c(C(=O)/C=C/c4ccccc4)c2O)OC(C)(C)C=C3)c1O [rottlerin]
  IC50: 0.2 µM
